The numbers were not newly measured in patent US20190289847A1, “SUSTAINED RELEASE FIBERS” (INVISTA TEXTILES (U.K.) LIMITED, priority 2016, published 2019), which cites them from elsewhere.

The test system of one series is fleas and ticks. The note with it: literature.

As to `O=C(Oc1ccccc1)c1ccccc1O` [phenyl salicylate], in the series with fleas and ticks, the “effectiveness against fleas and ticks” value is reported as “effective”. Further, in the series with dust mites (applied in a typical manner, i.e. topical application, at best), the duration of efficacy is 3-4 months. Besides, in the series with dust mites (literature), the “effectiveness against dust mites” value is reported as “effective”.
